{
  "source": "patent US20120015352A1",
  "about": "“METHOD OF DETERMINING SENSITIVITY OF HUMAN OR NON-HUMAN ANIMAL CELLS TO AN IAP ANTAGONIST” (Otto-von-Guericke-Universitat Magdeburg, priority 2009, published 2012)",
  "key": {"HaCaT cells [1]": {"test_system": "HaCaT cells", "assay": "Cytotoxicity assay (crystal violet)", "assay_type": "cell-based, human", "procedure": "(§1) Cytotoxicity assay. Crystal violet staining of attached, living cells was performed 20-24 h after stimulation with the indicated concentrations of TRAIL or CD95L in 96 well plates in triplicate wells per condition as described^37. The optical density (OD) of control cultures was normalized to 100% compared to stimulated cells. For statistical analysis the standard error of mean (SEM) was determined for 3-7 independent experiments of each cell line and stimulatory condition."}, "A5-RT3 cells": {"test_system": "A5-RT3 cells", "assay": "Cytotoxicity assay (crystal violet)", "assay_type": "cell-based, human", "procedure": "as §1"}, "HaCaT cells [2]": {"test_system": "HaCaT cells", "assay": "Immunofluorescence microscopy (Hoechst 33342, nuclear morphology)", "assay_type": "cell-based, human", "conditions": "zVAD-fmk 10 μM; for protection from cell death: CD95L 24 hrs", "procedure": "Immunofluorescence microscopy. For detection of nuclear morphology, 5×10^4 cells of the respective cells were seeded per well in a 12-well plate. Subsequently, cells were incubated with Hoechst 33342 (5 μg/ml) for 15 min at 37° C. immediately followed by phase contrast or fluorescence microscopy using a suitable instrument (Leica). Digital images were identically processed using appropriate software."}, "TRAF2 [3]": {"molecular_target": "T1, TRAF2 (human, UniProt Q12933 2-501)", "T1 construct": "Endogenous protein", "T1 sequence (looked up)": "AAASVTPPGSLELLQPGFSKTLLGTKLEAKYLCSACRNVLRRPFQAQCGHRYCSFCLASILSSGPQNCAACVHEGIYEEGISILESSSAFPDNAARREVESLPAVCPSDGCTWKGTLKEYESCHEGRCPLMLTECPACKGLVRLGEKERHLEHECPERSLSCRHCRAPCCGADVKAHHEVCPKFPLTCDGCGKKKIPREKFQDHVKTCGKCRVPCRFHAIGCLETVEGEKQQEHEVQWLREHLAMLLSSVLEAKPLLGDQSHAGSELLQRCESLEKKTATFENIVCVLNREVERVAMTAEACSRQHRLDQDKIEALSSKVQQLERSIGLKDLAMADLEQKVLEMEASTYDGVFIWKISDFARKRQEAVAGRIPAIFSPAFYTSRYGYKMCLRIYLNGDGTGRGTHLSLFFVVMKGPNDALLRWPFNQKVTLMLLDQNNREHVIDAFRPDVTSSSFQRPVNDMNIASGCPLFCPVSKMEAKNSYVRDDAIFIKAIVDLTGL", "assay": "CD95L-Fc ligand affinity precipitation of the CD95 DISC, Western blot", "procedure": "(§2) Ligand affinity precipitation of Receptor complexes. For the precipitation of the CD95L DISC, 5×10⁶ cells were used for each condition. Cells were washed once with medium at 37° C. and subsequently preincubated for 1 h with 10 μM zVAD-fmk and, as indicated with 100 nM IAP inhibitor at 37° C. Subsequently cells were treated with 250 units/ml CD95L-Fc for 2 h or, for the unstimulated control, in the absence of ligands. Receptor complex formation was stopped by washing the monolayer four times with ice-cold PBS. Cells were lysed on ice by addition of 2 ml lysis buffer (30 mM Tris-HCl pH 7.5 at 21° C., 120 mM NaCl, 10% Glycerol, 1% Triton X-100, Complete® protease inhibitor cocktail (Roche Molecular Diagnostics, Mannheim, Germany)). After 30 min lysis on ice, the lysates were centrifuged two times at 20,000×g for 5 min and 30 min, respectively, to remove cellular debris. A minor fraction of these clear lysates were used to control for the input of the respective proteins. For the precipitation of the CD95 receptor and stimulation-dependent recruited proteins, Apo-1 IgG3 antibodies (kindly provided by P. H. Krammer) were added to the lysates prepared from non-stimulated as well as stimulated cells to precipitate the receptor-interacting proteins. […]"}, "RIP1": {"molecular_target": "T2, RIP1 (human, UniProt Q13546 1-671)", "T2 construct": "Endogenous protein; also called kinase RIP1; full length RIP1", "T2 sequence (looked up)": "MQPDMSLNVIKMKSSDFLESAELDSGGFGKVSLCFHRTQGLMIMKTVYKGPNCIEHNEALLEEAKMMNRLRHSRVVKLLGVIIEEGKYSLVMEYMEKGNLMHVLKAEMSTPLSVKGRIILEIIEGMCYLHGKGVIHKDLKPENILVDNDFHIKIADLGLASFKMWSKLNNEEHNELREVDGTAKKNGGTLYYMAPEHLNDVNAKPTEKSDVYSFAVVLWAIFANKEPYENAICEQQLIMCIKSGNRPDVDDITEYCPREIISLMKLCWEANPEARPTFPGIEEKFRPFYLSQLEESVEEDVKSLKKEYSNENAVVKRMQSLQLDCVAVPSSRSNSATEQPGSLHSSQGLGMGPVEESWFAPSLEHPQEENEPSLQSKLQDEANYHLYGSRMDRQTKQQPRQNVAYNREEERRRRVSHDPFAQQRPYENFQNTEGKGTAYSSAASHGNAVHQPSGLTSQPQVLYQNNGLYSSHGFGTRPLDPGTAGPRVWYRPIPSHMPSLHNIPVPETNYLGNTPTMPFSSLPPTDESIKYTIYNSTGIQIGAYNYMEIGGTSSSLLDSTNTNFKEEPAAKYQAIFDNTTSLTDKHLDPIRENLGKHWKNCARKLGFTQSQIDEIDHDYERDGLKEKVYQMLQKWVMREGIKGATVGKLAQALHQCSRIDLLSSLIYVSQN", "assay": "CD95L-Fc ligand affinity precipitation of the DISC from control-infected HaCaT cells, Western blot", "procedure": "as §2"}, "TRAF2 [4]": {"molecular_target": "T1, TRAF2", "assay": "caspase-8 co-immunoprecipitation (complex II), Western blot"}, "A375 melanoma cells": {"test_system": "A375 melanoma cells", "assay": "Fc-CD95L unit determination (killing of cells)", "assay_type": "cell-based", "conditions": "one unit = 1:500 dilution of stock Fc-CD95L supernatant", "procedure": "Materials. […] B-actin Abs were from a suitable source. His-FLAG-TRAIL (HF-TRAIL) was produced as recently described^17. For expression of Fc-CD95L we used a construct recently published^57 (kindly provided by P. Schneider, Epalinges, Switzerland). One unit of Fc-CD95L was determined as a 1:500 dilution of the stock Fc-CD95L supernatant, and one unit/ml of Fc-CD95L supernatant was sufficient to kill 50 percent (LD50) of A375 melanoma cells, as recently described^58. […] Horseradish peroxidase (HRP)-conjugated goat anti-rabbit, goat anti rat IgG, goat anti-mouse IgG Abs and HRP-conjugated goat anti-mouse IgG1, IgG2a, IgG2b, and IgG1κ were obtained from Southern Biotechnology Associates (Birmingham, Ala.). TRAIL-R1 (HS 101), TRAIL-R2 (HS 201), mAbs for FACScan analysis of surface receptor expression were used as previously described^26 and are available from Alexis (San Diego, Calif.). CD95 Abs (Apo-1 IgG1 and IgG3a) were kindly provided by P. H. Krammer (German Cancer Research Center, Heidelberg, Germany). Cy5-conjugated Annexin V was purchased from Pharmingen (Hamburg, Germany). The IAP inhibitor (compound A) was provided by Tetralogic Pharmaceuticals (Malvern, Pa., USA). Compound A is exemplified in US20060194741, which is incorporated in its entirety by reference herein, and Compound A has the following structure: […]"}},
  "note": "Residues, ends and D or L forms follow the SMILES beside them. *: point of attachment. Cbz = O=C(OCc1ccccc1)*; CH2F = FC*",
  "data": [
    {"molecule": "CN1C(=O)C(Cc2c[nH]c3ccccc23)NC1=S", "note": "(stereo not drawn) [necrostatin-1]", "values": [
      {"measurement": "protection from CD95L-mediated cell death", "setting": "HaCaT cells [1]; cFLIPS-expressing HaCaT, IAP inhibitor + CD95L, necrostatin-1 50 μM, 24 hrs", "result": "fully protected"},
      {"measurement": "protection from TRAIL- or CD95L-mediated cell death", "setting": "HaCaT cells [1]; necrostatin-1 50 μM added to zVAD-fmk-protected cells, IAP inhibitor 100 nM", "result": "fully recovered viability"},
      {"measurement": "protection from death ligand-mediated cell death", "setting": "HaCaT cells [1]; necrostatin-1 50 μM alone, no caspase inhibitor, IAP inhibitor 100 nM", "result": "ineffective"},
      {"measurement": "protection from death ligand-mediated cell death", "setting": "A5-RT3 cells; cFLIP-shRNA A5-RT3 cells, necrostatin-1 50 μM, IAP inhibitor, CD95L", "result": "ineffective"}
    ]},
    {"molecule": "COC(=O)C[C@H](NC(=O)[C@H](C)NC(=O)[C@@H](NC(=O)OCc1ccccc1)C(C)C)C(=O)CF", "note": "[zVAD-fmk] (Cbz-Val-Ala-Asp(OMe)-CH2F)", "values": [
      {"measurement": "protection from death receptor-mediated cell death", "setting": "HaCaT cells [1]; cFLIPS-expressing HaCaT, IAP inhibitor + CD95L, zVAD-fmk 10 μM", "result": "not protected"},
      {"measurement": "block of TRAIL- or CD95L-mediated cell death", "setting": "HaCaT cells [1]; zVAD-fmk 10 μM, in the presence of IAP inhibitor 100 nM", "result": "only partially blocked"},
      {"measurement": "block of TRAIL- or CD95L-mediated cell death", "setting": "HaCaT cells [1]; zVAD-fmk 10 μM, without IAP inhibitor, 24 hrs", "result": "fully blocked cell death"},
      {"measurement": "protection from death ligand-mediated cell death", "setting": "A5-RT3 cells; cFLIP-downregulated cells insensitive to IAP inhibitor, zVAD-fmk", "result": "fully protected"},
      {"measurement": "protection of cellular morphology or DNA fragmentation", "setting": "HaCaT cells [2]; CD95L 4 hrs, in the presence of IAP inhibitor", "result": "fully protected"},
      {"measurement": "protection from cell death", "setting": "HaCaT cells [2]; in the presence of IAPs (no IAP inhibitor)", "result": "complete protection"},
      {"measurement": "protection from cell death", "setting": "HaCaT cells [2]; with IAP inhibitor", "result": "did not protect"}
    ]},
    {"molecule": "CD95 (receptor, human, UniProt P25445 26-335, looked up, whole, on cells; recruitment to it may be indirect (through FADD); also called CD95 DISC; CD95 receptor) QVTDINSKGLELRKTVTTVETQNLEGLHHDGQFCHKPCPPGERKARDCTVNGDEPDCVPCQEGKEYTDKAHFSSKCRRCRLCDEGHGLEVEINCTRTQNTKCRCKPNFFCNSTVCEHCDPCTKCEHGIIKECTLTSNTKCKEEGSRSNLGWLCLLLLPIPLIVWVKRKEVQKTCRKHRKENQGSHESPTLNPETVAINLSDVDLSKYITTIAGVMTLSQVKGFVRKNGVNEAKIDEIKNDNVQDTAEQKVQLLRNWHQLHGKKEAYDTLIKDLKKANLCTLAEKIQTIILKDITSDSENSNFRNEIQSLV", "values": [
      {"measurement": "binding result", "setting": "TRAF2 [3]", "result": "no binding"},
      {"measurement": "binding result", "setting": "RIP1", "result": "binds"}
    ]},
    {"molecule": "caspase-8 (enzyme, human, UniProt Q14790 1-479, looked up, Endogenous protein in cell lysates; also called caspase-8 p43/41 (cleaved form seen in the DISC)) MDFSRNLYDIGEQLDSEDLASLKFLSLDYIPQRKQEPIKDALMLFQRLQEKRMLEESNLSFLKELLFRINRLDLLITYLNTRKEEMERELQTPGRAQISAYRVMLYQISEEVSRSELRSFKFLLQEEISKCKLDDDMNLLDIFIEMEKRVILGEGKLDILKRVCAQINKSLLKIINDYEEFSKERSSSLEGSPDEFSNGEELCGVMTISDSPREQDSESQTLDKVYQMKSKPRGYCLIINNHNFAKAREKVPKLHSIRDRNGTHLDAGALTTTFEELHFEIKPHDDCTVEQIYEILKIYQLMDHSNMDCFICCILSHGDKGIIYGTDGQEAPIYELTSQFTGLKCPSLAGKPKVFFIQACQGDNYQKGIPVETDSEEQPYLEMDLSSPQTRYIPDEADFLLGMATVNNCVSYRNPAEGTWYIQSLCQSLRERCPRGDDILTILTEVNYEVSNKDDKKNMGKQMPQPTFTLRKKLVFPSD", "values": [
      {"measurement": "binding result", "setting": "TRAF2 [4]", "result": "no binding"}
    ]},
    {"molecule": "Fc-CD95L: Fc-CD95L supernatant expressed from a published construct; death ligand (protein, left off: a dimerising Fc or GST, Fc-CD95L supernatant expressed from a published construct; death ligand) EKKELRKVAHLTGKSNSRSMPLEWEDTYGIVLLSGVKYKKGGLVINETGLYFVYSKVYFRGQSCNNLPLSHKVYMRNSKYPQDLVMMEGKMMSYCTTGQMWARSSYLGAVFNLTSADHLYVNVSELSLVNFEESQTFFGLYKL", "values": [
      {"measurement": "LD50 (kill 50 percent of cells)", "setting": "A375 melanoma cells", "result": "one"}
    ]}
  ]
}
